Patent US8729089B2 (Gilead Sciences, Inc., priority 2006, dated 2014)
pEC50: −log10 of the molar value.

How the values were obtained:
[1] = test system: HCV replicon in human hepatoma Huh-7 cell line; test: Anti-HCV replicon assay (EC50, luciferase); format: cell-based; conditions: Hepatitis C virus, Huh-7, 72 h
Experimental: (§1) The anti-HCV activity of the pyrido[3,2-d]pyrimidine derivatives of this invention was tested in a human hepatoma Huh-7 cell line harboring a HCV replicon. The assay comprised the following steps:
(§2) Step 1: Compound Preparation and Serial Dilution
(§3) • 1. for water soluble pyrido[3,2-d]pyrimidine derivatives, a volume of 500 μL of solution in cell media (DMEM, 10% FBS, P/S, L-Glutamine) was prepared with a concentration being twice the concentration of the starting final serial dilution concentration. A volume of 150 μL of the solution was added to the pre-specified wells in column 1 of a 96-well cell culture plate (PerkinElmer, white plate, cat. #6005181, for EC50 assay; black plate, cat. #6005182 for CC50 assay). The rest of the plate, columns 2-12, was filled with 100 μL of cell media. The plate was then placed on a Precision 2000 Workstation to start the serial dilution. Compounds were diluted three times each step from column 1 to column 10. Column 11 was used as a blank control (no compound added). • 2. for pyrido[3,2-d]pyrimidine derivatives requiring DMSO to dissolve, serial dilution is performed in 50% DMSO in a 384-well plate. A solution containing a compound at 100-fold concentration of the starting final serial dilution concentration was prepared in 50% DMSO and added to the pre-specified wells in column 1 of a polypropylene 384-well plate. The plate was then placed on a Precision 2000 Workstation to start the serial dilution. After the serial dilution, a volume of 2 μL of the solution was transferred from the 384-well plate to a 96-well cell culture plate containing 100 μL of cell media on a Biomek FX Workstation. The DMSO concentration in the final assay condition was 0.5% after cells are added to the plate and the total volume in each well is brought to 200 μL.
(§4) Step 2: to each well of the serial dilution plate prepared above, 100 μL of cell media containing 6000 suspended Huh-7 HCV replicon cells was added with a Multidrop workstation. The plates were incubated for 3 days at 37° C. with 5% CO2.
(§5) • a) for the EC50 assay, the media in a 96-well cell culture plate was aspirated with a Biotek EL405 plate-washer. A volume of 200 μL of a solution containing a 1:1 mixture of cell-lysis buffer (Promega, Luciferase Cell Culture Lysis 5× Reagent, cat. #E1531) and luciferase substrate solution (Promega, Luciferase Assay, cat.#E4550) was added to each well of the plate with Multidrop. The plate was incubated for 30 minutes at room temperature before the luminescence signal was measured with a TopCount plate-reader. • b) for the CC50 assay, a volume of 100 μL of pre-mixed CellTiter-Glo (Promega, cat.#G7572) solution is added directly to the cell culture in each well of the plate and the luminescence signal is measured with a TopCount plate-reader after 10 minutes of incubation at room temperature.

[2] = CC50 assay (CellTiter-Glo) in Huh-7 HCV replicon cells; format: cell-based, human; conditions: human, 3 days incubation, CellTiter-Glo readout
Experimental: as §1, §2, §3, §4, §5

SMILES	pEC50 [1]	CC50 at 3 days [2] [µM]
CC(C)Nc1nc(Nc2ccc(F)cc2)nc2ccc(-c3ccc(F)cc3)nc12 [Example 49, 6-(4-Fluoro-phenyl)-N4-isopropyl-N2-(4-fluoro-phenyl)-pyrido[3,2-d]pyrimidine-2,4-diamine]	5.70 to 6.60	> 25
CC(C)Nc1nc(Nc2ccccc2)nc2ccc(-c3ccc(F)cc3)nc12 [Example 50, 6-(4-Fluoro-phenyl)-N4-isopropyl-N2-phenyl-pyrido[3,2-d]pyrimidine-2,4-diamine]	5.70 to 6.60	> 25
CN(C)c1nc(NCc2ccc(F)cc2)nc2ccc(-c3ccc(F)cc3)nc12 [Example 51, 6-(4-Fluoro-phenyl)-N4-(N,N-dimethyl)-N2-(4-fluoro-benzyl)-pyrido[3,2-d]pyrimidine-2,4-diamine]	5.70 to 6.60	> 25
Cc1ccc(Nc2nc(NC(C)C)c3nc(-c4ccc(F)cc4)ccc3n2)nn1 [Example 52, 6-(4-Fluoro-phenyl)-N4-isopropyl-N2-(6-methyl-pyridazin-3-yl)-pyrido[3,2-d]pyrimidine-2,4-diamine]	5.70 to 6.60	5 to 25
CC(C)Nc1nc(NCc2ccccn2)nc2ccc(-c3ccc(F)cc3)nc12 [Example 53, 6-(4-Fluoro-phenyl)-N4-isopropyl-N2-pyridin-2-ylmethyl-pyrido[3,2-d]pyrimidine-2,4-diamine]	6.60 to 7.00	5 to 25
CC(C)Nc1nc(NCc2cccnc2)nc2ccc(-c3ccc(F)cc3)nc12 [Example 54, 6-(4-Fluoro-phenyl)-N4-isopropyl-N2-pyridin-3-ylmethyl-pyrido[3,2-d]pyrimidine-2,4-diamine]	6.60 to 7.00	5 to 25
CC(C)Nc1nc(NCC(F)(F)F)nc2ccc(-c3ccc(F)cc3)nc12 [Example 55, 6-(4-Fluoro-phenyl)-N4-isopropyl-N2-(2,2,2-trifluoro-ethyl)-pyrido[3,2-d]pyrimidine-2,4-diamine]	> 7.00	5 to 25
CC(C)Nc1nc(NCCN2CCOCC2)nc2ccc(-c3ccc(F)cc3)nc12 [Example 56, 6-(4-Fluoro-phenyl)-N4-isopropyl-N2-(2-morpholin-4-yl-ethyl)-pyrido[3,2-d]pyrimidine-2,4-diamine]	5.70 to 6.60	5 to 25
CC(C)Nc1nc(NCC(F)F)nc2ccc(-c3ccc(F)cc3)nc12 [Example 57, N2-(2,2-Difluoro-ethyl)-6-(4-fluoro-phenyl)-N4-isopropyl-pyrido[3,2-d]pyrimidine-2,4-diamine]	5.70 to 6.60	< 5
COCCNc1nc(NC(C)C)c2nc(-c3ccc(F)cc3)ccc2n1 [Example 58, 6-(4-Fluoro-phenyl)-N4-isopropyl-N2-(2-methoxy-ethyl)-pyrido[3,2-d]pyrimidine-2,4-diamine]	5.70 to 6.60	< 5
CCN(CC)c1nc(NCc2ccc(S(N)(=O)=O)cc2)nc2ccc(-c3ccc(F)cc3)nc12 [Example 59, 4-{[4-Diethylamino-6-(4-fluoro-phenyl)-pyrido[3,2-d]pyrimidin-2-ylamino]-methyl}-benzenesulfonamide]	> 7.00	5 to 25
Fc1ccc(-c2ccc3nc(NCC(F)(F)F)nc(NCC(F)(F)F)c3n2)cc1 [Example 60, 6-(4-Fluoro-phenyl)-2,4-bis(2,2,2-trifluoro-ethylamino)-pyrido[3,2-d]pyrimidine]	> 7.00	> 25
CCOc1nc(NCc2ccc(F)cc2)nc2ccc(-c3cnc(N)cn3)nc12 [Example 62, [6-(5-Amino-pyrazin-2-yl)-4-ethoxy-pyrido[3,2-d]pyrimidin-2-yl]-(4-fluoro-benzyl)-amine]	> 7.00	> 25
CCOc1nc(NCc2ccc(F)cc2)nc2ccc(-c3ccc(C(=O)NCCN(C)C)cc3)nc12 [Example 63, N-(2-Dimethylamino-ethyl)-4-[4-ethoxy-2-(4-fluoro-benzylamino)-pyrido[3,2-d]pyrimidin-6-yl]-benzamide]	> 7.00	< 5
CCOc1nc(NCc2ccc(F)cc2)nc2ccc(-c3ccc(F)c(Cl)c3)nc12 [Example 64, [6-(3-Chloro-4-fluoro-phenyl)-4-ethoxy-pyrido[3,2-d]pyrimidin-2-yl]-(4-fluoro-benzyl)-amine]	> 7.00	5 to 25
CCOc1nc(NCc2ccc(F)cc2)nc2ccc(-c3ccc(C(=O)NC4CC4)cc3)nc12 [Example 65, N-Cyclopropyl-4-[4-ethoxy-2-(4-fluoro-benzylamino)-pyrido[3,2-d]pyrimidin-6-yl]-benzamide]	> 7.00	> 25
CCOc1nc(NCc2ccc(F)cc2)nc2ccc(-c3cccc(NS(C)(=O)=O)c3)nc12 [Example 66, N-{3-[4-Ethoxy-2-(4-fluoro-benzylamino)-pyrido[3,2-d]pyrimidin-6-yl]-phenyl}-methanesulfonamide]	> 7.00	< 5
CCOc1nc(NCc2ccc(F)cc2)nc2ccc(-c3ccc(NC(=O)C4CC4)cc3)nc12 [Example 67, Cyclopropanecarboxylic acid {4-[4-ethoxy-2-(4-fluoro-benzylamino)-pyrido[3,2-d]pyrimidin-6-yl]-phenyl}-amide]	> 7.00	5 to 25
CCOc1nc(NCc2ccc(F)cc2)nc2ccc(-c3ccc(F)c(S(N)(=O)=O)c3)nc12 [Example 68, 5-[4-Ethoxy-2-(4-fluoro-benzylamino)-pyrido[3,2-d]pyrimidin-6-yl]-2-fluoro-benzenesulfonamide]	> 7.00	5 to 25
CCOc1nc(NCc2ccc(F)cc2)nc2ccc(-c3ccc(NC(=O)CO)cc3)nc12 [Example 69, N-{4-[4-Ethoxy-2-(4-fluoro-benzylamino)-pyrido[3,2-d]pyrimidin-6-yl]-phenyl}-2-hydroxy-acetamide]	> 7.00	> 25
CCOc1nc(NCc2ccc(F)cc2)nc2ccc(-c3ccc(NC(=O)CN)cc3)nc12 [Example 70, 2-Amino-N-{4-[4-ethoxy-2-(4-fluoro-benzylamino)-pyrido[3,2-d]pyrimidin-6-yl]-phenyl}-acetamide]	> 7.00	< 5
CCOc1nc(NCc2ccc(F)cc2)nc2ccc(-c3ccc(NC(=O)NCCN4CCOCC4)cc3)nc12 [Example 71, 1-{4-[4-Ethoxy-2-(4-fluoro-benzylamino)-pyrido[3,2-d]pyrimidin-6-yl]-phenyl}-3-(2-morpholin-4-yl-ethyl)-urea]	> 7.00	< 5
CCOc1nc(NCc2ccc(F)cc2)nc2ccc(-c3ccc(NC(=O)N4CCOCC4)cc3)nc12 [Example 72, Morpholine-4-carboxylic acid {4-[4-ethoxy-2-(4-fluoro-benzylamino)-pyrido[3,2-d]pyrimidin-6-yl]-phenyl}-amide]	> 7.00	5 to 25
CCOc1nc(NCc2ccc(F)cc2)nc2ccc(-c3ccc(NC(=O)N4CCCC4)cc3)nc12 [Example 73, Pyrrolidine-1-carboxylic acid {4-[4-ethoxy-2-(4-fluoro-benzylamino)-pyrido[3,2-d]pyrimidin-6-yl]-phenyl}-amide]	> 7.00	5 to 25
CCOc1nc(NCc2ccc(F)cc2)nc2ccc(-c3ccc(NC(=O)NC4CC4)cc3)nc12 [Example 74, 1-Cyclopropyl-3-{4-[4-ethoxy-2-(4-fluoro-benzylamino)-pyrido[3,2-d]pyrimidin-6-yl]-phenyl}-urea]	> 7.00	5 to 25
